Data from patent publication US20140163026A1, “8-ETHYL-6-(ARYL)PYRIDO[2,3-D]PYRIMIDIN-7(8H)-ONES FOR THE TREATMENT OF NERVOUS SYSTEM DISORDERS AND CANCER” (Afraxis Holdings, Inc., priority 2011, published 2014).

How the values were obtained:
Assay type in all cases: biochemical
[1] = target: PAK3 (Homo sapiens, UniProt O75914); assay: In vitro PAK inhibition assay (SelectScreen, Ser/Thr 20 peptide)
In short: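 Fluorescence-based development format: after a 60-min room-temperature kinase reaction and 60-min protease development, percent phosphorylation of Ser/Thr 20 peptide calculated via phosphopeptide controls. Buffer 50 mM HEPES pH 7.5, 10 mM MgCl2, 1 mM EGTA, 0.01% BRIJ-35; compounds at 1% DMSO, 10-point 3-fold dilution series.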

[2] = target: PAK1 (Homo sapiens, UniProt Q13153); assay: In vitro PAK inhibition assay (SelectScreen, Ser/Thr 19 peptide)
In short: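 Ten-point, 3-fold compound series at 1% final DMSO were incubated with enzyme, Ser/Thr 19 peptide and ATP for 60 min at room temperature. Buffer was HEPES pH 7.5 (50 mM) with 10 mM MgCl2, 1 mM EGTA, 0.01% BRIJ-35. A 60 min development step preceded the fluorescence read converted to % phosphorylation.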

[3] = target: PAK2 (PAK65) (Homo sapiens, UniProt Q13177); assay: In vitro PAK inhibition assay (SelectScreen, Ser/Thr 20 peptide)
In short: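 Ten-point threefold compound dilutions (1% DMSO) were incubated with PAK2 (0.29-6 ng) and Ser/Thr 20 substrate (2 μM) for 60 min at room temperature in HEPES pH 7.5 buffer with MgCl2, EGTA and BRIJ-35.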

[4] = target: PAK4 (Homo sapiens, UniProt O96013); assay: as above
In short: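 Ten-point, 3-fold compound series (1% DMSO) incubated 1 h at room temperature with PAK4 (0.1-0.75 ng) and 2 μM Ser/Thr 20 peptide, HEPES pH 7.5 buffer with MgCl2, EGTA, BRIJ-35. Development reagent cleaves non-phosphorylated peptide; fluorescence emission ratio gives % phosphorylation, fitted sigmoidally for IC50.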

Sequence of PAK2 (PAK65) (Q13177 whole entry): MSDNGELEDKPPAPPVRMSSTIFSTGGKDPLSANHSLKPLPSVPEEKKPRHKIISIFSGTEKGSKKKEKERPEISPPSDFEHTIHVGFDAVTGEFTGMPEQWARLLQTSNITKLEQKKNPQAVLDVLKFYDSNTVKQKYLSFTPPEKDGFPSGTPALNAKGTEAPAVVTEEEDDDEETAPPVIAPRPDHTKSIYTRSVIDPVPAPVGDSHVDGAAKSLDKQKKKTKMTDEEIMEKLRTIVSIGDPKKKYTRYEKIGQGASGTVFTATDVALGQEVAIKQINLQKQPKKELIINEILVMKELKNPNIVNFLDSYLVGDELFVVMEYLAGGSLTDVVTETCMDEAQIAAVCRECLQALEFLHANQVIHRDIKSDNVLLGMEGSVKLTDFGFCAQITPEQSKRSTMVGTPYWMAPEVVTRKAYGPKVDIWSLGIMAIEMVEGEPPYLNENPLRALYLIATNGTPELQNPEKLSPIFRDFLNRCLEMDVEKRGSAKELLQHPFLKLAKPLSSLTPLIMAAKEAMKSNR
Sequence of PAK4 (O96013 whole entry): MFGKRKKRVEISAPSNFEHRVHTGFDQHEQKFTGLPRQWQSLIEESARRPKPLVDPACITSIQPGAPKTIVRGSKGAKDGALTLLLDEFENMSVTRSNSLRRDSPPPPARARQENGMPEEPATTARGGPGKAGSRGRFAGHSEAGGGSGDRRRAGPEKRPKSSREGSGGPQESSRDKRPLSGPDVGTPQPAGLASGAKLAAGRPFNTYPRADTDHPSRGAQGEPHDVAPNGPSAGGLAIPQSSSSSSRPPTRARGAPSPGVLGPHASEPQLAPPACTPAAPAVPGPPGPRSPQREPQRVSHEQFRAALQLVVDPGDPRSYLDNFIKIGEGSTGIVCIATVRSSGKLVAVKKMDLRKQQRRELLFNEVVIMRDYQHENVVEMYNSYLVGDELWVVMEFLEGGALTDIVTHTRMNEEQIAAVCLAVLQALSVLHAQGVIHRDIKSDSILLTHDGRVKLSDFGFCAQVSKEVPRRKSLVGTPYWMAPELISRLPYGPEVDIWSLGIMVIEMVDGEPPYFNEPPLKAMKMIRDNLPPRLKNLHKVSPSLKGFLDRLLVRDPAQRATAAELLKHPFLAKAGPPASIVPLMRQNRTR
Sequence of PAK3 (O75914 whole entry): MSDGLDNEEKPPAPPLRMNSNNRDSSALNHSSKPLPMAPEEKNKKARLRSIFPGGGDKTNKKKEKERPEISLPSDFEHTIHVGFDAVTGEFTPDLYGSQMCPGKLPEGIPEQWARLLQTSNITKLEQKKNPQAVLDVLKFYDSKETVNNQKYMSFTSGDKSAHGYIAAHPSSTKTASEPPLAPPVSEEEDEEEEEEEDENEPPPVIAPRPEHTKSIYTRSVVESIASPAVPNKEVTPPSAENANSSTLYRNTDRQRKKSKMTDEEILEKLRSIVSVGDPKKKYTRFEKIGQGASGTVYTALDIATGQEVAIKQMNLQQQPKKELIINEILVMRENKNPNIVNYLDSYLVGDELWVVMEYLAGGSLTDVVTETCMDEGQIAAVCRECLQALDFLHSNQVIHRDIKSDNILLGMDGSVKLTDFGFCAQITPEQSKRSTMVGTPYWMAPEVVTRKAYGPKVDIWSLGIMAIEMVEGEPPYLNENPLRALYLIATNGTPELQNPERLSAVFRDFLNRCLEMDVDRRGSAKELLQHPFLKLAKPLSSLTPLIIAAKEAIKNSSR
Sequence of PAK1 (Q13153 whole entry): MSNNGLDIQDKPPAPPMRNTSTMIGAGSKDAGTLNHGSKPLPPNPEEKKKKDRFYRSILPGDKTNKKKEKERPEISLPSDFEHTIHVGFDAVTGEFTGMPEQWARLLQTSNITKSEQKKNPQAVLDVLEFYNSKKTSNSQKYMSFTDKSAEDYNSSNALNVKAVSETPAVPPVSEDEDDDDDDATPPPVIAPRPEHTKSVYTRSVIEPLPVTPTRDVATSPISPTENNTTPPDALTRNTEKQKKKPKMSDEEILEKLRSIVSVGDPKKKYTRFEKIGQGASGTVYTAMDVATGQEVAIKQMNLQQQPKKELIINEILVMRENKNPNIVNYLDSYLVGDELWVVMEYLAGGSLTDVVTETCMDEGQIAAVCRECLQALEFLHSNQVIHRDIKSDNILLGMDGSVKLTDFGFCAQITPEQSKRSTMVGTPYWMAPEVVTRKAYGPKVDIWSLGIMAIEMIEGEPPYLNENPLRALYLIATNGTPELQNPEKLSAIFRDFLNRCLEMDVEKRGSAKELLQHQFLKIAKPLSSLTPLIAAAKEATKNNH

IC50 [1] [nM]	IC50 [2] [nM]	IC50 [3] [nM]	IC50 [4] [nM]	SMILES
< 50	< 50	< 50	≥ 5000	CCn1c(=O)c(-c2ccc(-c3ccoc3)cc2Cl)cc2cnc(Nc3ccc(N4CCN(C)CC4)cc3)nc21
< 50	< 50	< 50	≥ 5000	CCn1c(=O)c(-c2ccc(-c3ccco3)cc2Cl)cc2cnc(Nc3ccc(N4CCN(C)CC4)cc3)nc21
< 50	< 50	< 50	≥ 5000	CCn1c(=O)c(-c2ccc(-c3ccsc3)cc2Cl)cc2cnc(Nc3ccc(N4CCN(C)CC4)cc3)nc21
50 to 500	< 50	< 50	≥ 5000	CCn1c(=O)c(-c2ccc(-c3ccc(C)s3)cc2Cl)cc2cnc(Nc3ccc(N4CCN(C)CC4)cc3)nc21
50 to 500	< 50	< 50	≥ 5000	CCn1c(=O)c(-c2ccc(-c3cnn(C)c3)cc2Cl)cc2cnc(Nc3ccc(N4CCN(C)CC4)cc3)nc21
< 50	< 50	< 50	500 to 5000	CCn1c(=O)c(-c2ccc(-c3cccnc3F)cc2Cl)cc2cnc(Nc3ccc(C4CCNCC4)c(F)c3)nc21
50 to 500	< 50	< 50	500 to 5000	CCn1c(=O)c(-c2ccc(-c3ccc(C)nc3F)cc2Cl)cc2cnc(Nc3ccc(C4CCN(C)CC4)cc3)nc21
50 to 500	< 50	< 50	≥ 5000	CCn1c(=O)c(-c2ccc(-c3ccc(C)nc3)cc2Cl)cc2cnc(Nc3ccc(C4CCN(C)CC4)c(F)c3)nc21
< 50	< 50	< 50	500 to 5000	CCn1c(=O)c(-c2ccc(-c3cccnc3F)cc2Cl)cc2cnc(Nc3ccc(C4CCN(C)CC4)c(F)c3)nc21
50 to 500	< 50	50 to 500	≥ 5000	CCn1c(=O)c(-c2ccc(-c3cccnc3C)cc2Cl)cc2cnc(Nc3ccc(C4CCN(C)CC4)c(F)c3)nc21
50 to 500	< 50	< 50	500 to 5000	CCN1CCC(c2ccc(Nc3ncc4cc(-c5ccc(-c6ccc(C)nc6)cc5Cl)c(=O)n(CC)c4n3)cc2F)CC1
50 to 500	< 50	50 to 500	≥ 5000	CCN1CCC(c2ccc(Nc3ncc4cc(-c5ccc(-c6cccnc6C)cc5Cl)c(=O)n(CC)c4n3)cc2F)CC1
50 to 500	< 50	50 to 500	≥ 5000	CCn1c(=O)c(-c2ccc(-c3ccc(F)nc3C)cc2Cl)cc2cnc(Nc3ccc(C4CCN(C)CC4)cc3)nc21
< 50	< 50	< 50	500 to 5000	CCN1CCC(c2ccc(Nc3ncc4cc(-c5ccc(-c6cccnc6F)cc5Cl)c(=O)n(CC)c4n3)cc2F)CC1
< 50	< 50	< 50	≥ 5000	CCN1CCC(c2ccc(Nc3ncc4cc(-c5ccc(-c6noc(C)n6)cc5Cl)c(=O)n(CC)c4n3)cc2F)CC1
50 to 500	50 to 500	50 to 500	≥ 5000	CCN1CCC(c2ccc(Nc3ncc4cc(-c5ccc(-c6ccc(C)nc6F)cc5Cl)c(=O)n(CC)c4n3)cc2F)CC1
< 50	< 50	< 50	500 to 5000	CCn1c(=O)c(-c2ccc(-c3noc(C)n3)cc2Cl)cc2cnc(Nc3ccc(C4CCN(C(C)C)CC4)cc3)nc21
50 to 500	< 50	< 50	≥ 5000	CCn1c(=O)c(-c2ccc(-c3ccnc(C)c3)cc2Cl)cc2cnc(Nc3ccc(C4CCN(C)CC4)c(F)c3)nc21
50 to 500	< 50	< 50	≥ 5000	Cc1ncccc1-c1ccc(-c2cc3cnc(Nc4ccc(C5CCN(C)CC5)cc4)nc3n(C)c2=O)c(Cl)c1
< 50	< 50	< 50	500 to 5000	CCN1CCC(c2ccc(Nc3ncc4cc(-c5ccc(-c6ccnc(C)c6)cc5Cl)c(=O)n(CC)c4n3)cc2F)CC1
< 50	< 50	< 50	500 to 5000	CCn1c(=O)c(-c2ccc(-c3noc(C)n3)cc2Cl)cc2cnc(Nc3ccc(C4CCN(C)CC4)c(F)c3)nc21
50 to 500	50 to 500	50 to 500	500 to 5000	CCn1c(=O)c(-c2ccc(-c3ccc(C)nc3F)cc2Cl)cc2cnc(Nc3ccc(C4CCN(C)CC4)c(F)c3)nc21

IC50 [1] [nM]	IC50 [2] [nM]	IC50 [3] [nM]	IC50 [4] [nM]	SMILES
50 to 500	50 to 500	50 to 500	≥ 5000	CCn1c(=O)c(-c2ccc(-c3ccc(F)nc3C)cc2Cl)cc2cnc(Nc3ccc(C4CCN(C)CC4)c(F)c3)nc21
50 to 500	50 to 500	50 to 500	≥ 5000	CCn1c(=O)c(-c2ccc(-c3ccnc(C(=O)NC)c3)cc2Cl)cc2cnc(Nc3ccc(C4CCN5CCCC5C4)cc3)nc21 (centres unmarked)
< 50	< 50	< 50	500 to 5000	CCn1c(=O)c(-c2ccc(-c3cnc(C)s3)cc2Cl)cc2cnc(Nc3ccc(CCN(C)C)cc3)nc21
50 to 500	< 50	50 to 500	≥ 5000	Cc1ncccc1-c1ccc(-c2cc3cnc(Nc4ccc(CCN(C)C)cc4)nc3n(C)c2=O)c(Cl)c1
< 50	< 50	< 50	≥ 5000	CCN1CCC(c2ccc(Nc3ncc4cc(-c5ccc(-c6noc(C)n6)cc5Cl)c(=O)n(C)c4n3)cc2)CC1
< 50	< 50	< 50	≥ 5000	Cc1nc(-c2ccc(-c3cc4cnc(Nc5ccc(CCN(C)C)cc5)nc4n(C)c3=O)c(Cl)c2)no1
50 to 500	< 50	< 50	≥ 5000	Cc1ncc(-c2ccc(-c3cc4cnc(Nc5ccc(C6CCN(C)CC6)cc5)nc4n(C)c3=O)c(Cl)c2)s1
< 50	< 50	< 50	≥ 5000	Cc1ncc(-c2ccc(-c3cc4cnc(Nc5ccc(CCN(C)C)cc5)nc4n(C)c3=O)c(Cl)c2)s1
50 to 500	< 50	< 50	500 to 5000	CCn1c(=O)c(-c2ccc(-c3ccc(C)nc3)cc2Cl)cc2cnc(Nc3ccc(C4CCN5CCCC5C4)cc3)nc21 (centres unmarked)
50 to 500	< 50	50 to 500	≥ 5000	CCn1c(=O)c(-c2ccc(-c3ccnc(C)c3)cc2Cl)cc2cnc(Nc3ccc(C4CCN5CCCC5C4)cc3)nc21 (centres unmarked)
< 50	< 50	< 50	500 to 5000	CCn1c(=O)c(-c2ccc(-c3cnc(C)s3)cc2Cl)cc2cnc(Nc3ccc(C4CCN5CCCC5C4)cc3)nc21 (centres unmarked)
50 to 500	< 50	50 to 500	≥ 5000	CCN1CCC(c2ccc(Nc3ncc4cc(-c5ccc(-c6cccnc6C)cc5Cl)c(=O)n(C)c4n3)cc2)CC1
500 to 5000	50 to 500	50 to 500	≥ 5000	CNC(=O)c1cc(-c2ccc(-c3cc4cnc(Nc5ccc(C6CCN(C)CC6)cc5)nc4n(C)c3=O)c(Cl)c2)ccn1
500 to 5000	50 to 500	50 to 500	≥ 5000	CNC(=O)c1cc(-c2ccc(-c3cc4cnc(Nc5ccc(CCN(C)C)cc5)nc4n(C)c3=O)c(Cl)c2)ccn1
50 to 500	50 to 500	50 to 500	500 to 5000	CNC(=O)c1cc(-c2ccc(-c3cc4cnc(Nc5ccc(C6CCNCC6)cc5)nc4n(C)c3=O)c(Cl)c2)ccn1
< 50	< 50	< 50	≥ 5000	CN1CCC(c2ccc(Nc3ncc4cc(-c5ccc(-c6cccnc6F)cc5Cl)c(=O)n(C)c4n3)cc2)CC1
< 50	< 50	< 50	500 to 5000	CN(C)CCc1ccc(Nc2ncc3cc(-c4ccc(-c5cccnc5F)cc4Cl)c(=O)n(C)c3n2)cc1
50 to 500	50 to 500	50 to 500	≥ 5000	CCn1c(=O)c(-c2ccc(-c3ccc(F)nc3C)cc2Cl)cc2cnc(Nc3ccc(C4CCNCC4)c(F)c3)nc21
< 50	< 50	< 50	500 to 5000	CCn1c(=O)c(-c2ccc(-c3noc(C)n3)cc2Cl)cc2cnc(Nc3ccc(CCN4CCCC4)cc3)nc21
50 to 500	< 50	< 50	≥ 5000	CCn1c(=O)c(-c2ccc(-c3cccnc3C)cc2Cl)cc2cnc(Nc3ccc(CCN4CCCC4)cc3)nc21
50 to 500	50 to 500	50 to 500	≥ 5000	CCn1c(=O)c(-c2ccc(-c3cccnc3F)cc2Cl)cc2cnc(Nc3ccc(CCN4CCOCC4)cc3)nc21
50 to 500	50 to 500	50 to 500	≥ 5000	CCn1c(=O)c(-c2ccc(-c3noc(C)n3)cc2)cc2cnc(Nc3ccc(C4CCN(C)CC4)cc3)nc21
